According to patent US12252524B2, “GIP/GLP1 co-agonist compounds” (Eli Lilly and Company, priority 2018, dated 2025):
Numbered stars: 1 amine (or outer) side, 2 acyl side, 3 side chain; on linkers, the order of the positions; unused ones are H or OH. Square brackets hold non-standard residues; d marks the D form. Side chains are listed from the residue outwards. Peptide text beside a SMILES is read from it. * marks the point of attachment. C20 diacid = O=C(O)CCCCCCCCCCCCCCCCCCC(=O)*; γGlu = O=C(O)[C@H](CCC(=O)[*:2])N[*:1]; αMeF = C[C@](N)(Cc1ccccc1)C(=O)O; AEEA = NCCOCCOCC(=O)O; Aib = CC(C)(N)C(=O)O

Assays:
[1] = target: human GLP-1 receptor (GLP-1R) (Homo sapiens, UniProt P43220); assay: cAMP pharmacological functional assay in presence of casein, hGLP-1R; type: cell-based; conditions: HEK293 cells expressing hGLP-1R, 0.1% Casein, geometric mean; read-out: hGLP1R cAMP Rel EC50 nM (SEM, n)
Sequence of human GLP-1 receptor (GLP-1R) (P43220 24-463): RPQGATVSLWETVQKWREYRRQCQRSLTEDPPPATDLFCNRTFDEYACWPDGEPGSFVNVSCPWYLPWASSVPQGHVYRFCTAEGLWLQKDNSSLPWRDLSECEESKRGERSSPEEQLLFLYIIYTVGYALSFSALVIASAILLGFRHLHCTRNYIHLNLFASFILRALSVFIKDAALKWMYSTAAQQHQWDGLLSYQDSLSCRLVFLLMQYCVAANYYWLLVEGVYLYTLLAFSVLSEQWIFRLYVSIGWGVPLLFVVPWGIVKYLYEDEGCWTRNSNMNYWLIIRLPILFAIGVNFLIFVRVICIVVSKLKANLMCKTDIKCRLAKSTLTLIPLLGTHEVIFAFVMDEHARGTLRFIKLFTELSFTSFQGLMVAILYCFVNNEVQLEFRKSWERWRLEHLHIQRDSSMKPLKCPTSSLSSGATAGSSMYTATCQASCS

[2] = target: T1, gastric inhibitory peptide receptor (GIPR) (Homo sapiens, UniProt P48546); assay: cAMP pharmacological functional assay in presence of casein, hGIPR; type: cell-based; conditions: HEK293 cells expressing hGIPR, 0.1% Casein, geometric mean; read-out: hGIPR cAMP Rel EC50 nM (SEM, n)
T1 sequence (P48546 22-466): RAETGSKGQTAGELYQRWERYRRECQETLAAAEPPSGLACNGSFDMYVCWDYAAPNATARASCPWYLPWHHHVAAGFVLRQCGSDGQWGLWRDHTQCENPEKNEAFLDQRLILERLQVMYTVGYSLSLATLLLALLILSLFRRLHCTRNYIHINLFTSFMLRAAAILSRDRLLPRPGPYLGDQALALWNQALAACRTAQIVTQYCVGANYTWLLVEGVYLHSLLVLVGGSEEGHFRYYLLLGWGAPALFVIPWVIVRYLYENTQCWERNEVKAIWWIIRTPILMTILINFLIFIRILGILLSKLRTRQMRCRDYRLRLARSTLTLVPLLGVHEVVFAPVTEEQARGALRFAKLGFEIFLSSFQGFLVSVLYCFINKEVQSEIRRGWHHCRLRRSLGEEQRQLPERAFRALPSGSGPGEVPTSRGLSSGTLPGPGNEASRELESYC

Row | Compound | EC50 [1] [nM] | EC50 [2] [nM]
1 | CC[C@H](C)[C@H](NC(=O)[C@H](CC(C)C)NC(=O)[C@H](Cc1ccc(O)cc1)NC(=O)[C@H](CCC(=O)O)NC(=O)[C@@H](NC(=O)[C@H](Cc1ccccc1)NC(=O)[C@H](C)NC(=O)C(C)(C)NC(=O)[C@H](CCC(N)=O)NC(=O)[C@H](C)NC(=O)[C@H](CCCCNC(=O)COCCOCCNC(=O)COCCOCCNC(=O)CC[C@H](NC(=O)CCCCCCCCCCCCCCCCCCC(=O)O)C(=O)O)NC(=O)[C@H](CCCCN)NC(=O)[C@H](CC(=O)O)NC(=O)[C@H](CC(C)C)NC(=O)[C@H](CC(C)C)NC(=O)[C@@H](NC(=O)[C@H](CO)NC(=O)[C@H](Cc1ccc(O)cc1)NC(=O)[C@H](CC(=O)O)NC(=O)[C@H](CO)NC(=O)[C@@H](NC(=O)[C@](C)(Cc1ccccc1)NC(=O)[C@@H](NC(=O)CNC(=O)[C@H](CCC(=O)O)NC(=O)C(C)(C)NC(=O)[C@@H](N)Cc1ccc(O)cc1)[C@@H](C)O)[C@@H](C)O)[C@@H](C)CC)[C@@H](C)CC)C(=O)N[C@@H](CCC(=O)O)C(=O)NCC(=O)NCC(N)=O [Example 98] (H-Y[Aib]EGT[αMeF]TSDYSILLDKK([AEEA-AEEA-γGlu-C20 diacid])AQ[Aib]AFIEYLIEGG-NH2) | 0.157 | 0.0718
2 | CC[C@H](C)[C@H](NC(=O)[C@H](CC(C)C)NC(=O)[C@H](Cc1ccc(O)cc1)NC(=O)[C@H](CCC(=O)O)NC(=O)[C@@H](NC(=O)[C@H](Cc1ccccc1)NC(=O)[C@H](C)NC(=O)C(C)(C)NC(=O)[C@H](CCC(N)=O)NC(=O)[C@H](C)NC(=O)[C@H](CCCCNC(=O)COCCOCCNC(=O)COCCOCCNC(=O)CC[C@H](NC(=O)CCCCCCCCCCCCCCCCCCC(=O)O)C(=O)O)NC(=O)[C@H](CCC(=O)O)NC(=O)[C@H](CC(=O)O)NC(=O)[C@H](CC(C)C)NC(=O)C(C)(C)NC(=O)[C@@H](NC(=O)[C@H](CO)NC(=O)[C@H](Cc1ccc(O)cc1)NC(=O)[C@H](CC(=O)O)NC(=O)[C@H](CO)NC(=O)[C@@H](NC(=O)[C@](C)(Cc1ccccc1)NC(=O)[C@@H](NC(=O)CNC(=O)[C@H](CCC(=O)O)NC(=O)C(C)(C)NC(=O)[C@@H](N)Cc1ccc(O)cc1)[C@@H](C)O)[C@@H](C)O)[C@@H](C)CC)[C@@H](C)CC)C(=O)N[C@@H](CCC(=O)O)C(=O)NCC(=O)NCC(N)=O [Example 102] (H-Y[Aib]EGT[αMeF]TSDYSI[Aib]LDEK([AEEA-AEEA-γGlu-C20 diacid])AQ[Aib]AFIEYLIEGG-NH2) | 0.0628 | 0.178
3 | CC[C@H](C)[C@H](NC(=O)[C@H](CC(C)C)NC(=O)[C@H](Cc1ccc(O)cc1)NC(=O)[C@H](CCC(=O)O)NC(=O)[C@@H](NC(=O)[C@H](Cc1ccccc1)NC(=O)[C@H](C)NC(=O)C(C)(C)NC(=O)[C@H](CCC(N)=O)NC(=O)[C@H](C)NC(=O)[C@H](CCCCNC(=O)COCCOCCNC(=O)[C@H]1CC[C@H](CNC(=O)CC[C@H](NC(=O)CCCCCCCCCCCCCCCCCCC(=O)O)C(=O)O)CC1)NC(=O)[C@H](CCCCN)NC(=O)[C@H](CC(=O)O)NC(=O)[C@H](CC(C)C)NC(=O)[C@H](CC(C)C)NC(=O)[C@@H](NC(=O)[C@H](CO)NC(=O)[C@H](Cc1ccc(O)cc1)NC(=O)[C@H](CC(=O)O)NC(=O)[C@H](CO)NC(=O)[C@@H](NC(=O)[C@H](Cc1ccccc1)NC(=O)[C@@H](NC(=O)CNC(=O)[C@H](CCC(=O)O)NC(=O)C(C)(C)NC(=O)[C@@H](N)Cc1ccc(O)cc1)[C@@H](C)O)[C@@H](C)O)[C@@H](C)CC)[C@@H](C)CC)C(=O)N[C@@H](CCC(=O)O)C(=O)NCC(=O)NCC(=O)N1CCC[C@H]1C(=O)N[C@@H](CO)C(=O)N[C@@H](CO)C(=O)NCC(=O)N[C@@H](C)C(=O)N1CCC[C@H]1C(=O)N1CCC[C@H]1C(=O)N1CCC[C@H]1C(=O)N[C@@H](CO)C(N)=O [Example 111] | 0.308 | 0.141
4 | CC[C@H](C)[C@H](NC(=O)[C@H](CC(C)C)NC(=O)[C@H](Cc1ccc(O)cc1)NC(=O)[C@H](CCC(=O)O)NC(=O)[C@@H](NC(=O)[C@H](Cc1ccccc1)NC(=O)[C@H](C)NC(=O)C(C)(C)NC(=O)[C@H](CCC(N)=O)NC(=O)[C@H](C)NC(=O)[C@H](CCCCNC(=O)COCCOCCNC(=O)COCCOCCNC(=O)[C@@H](N)CCCCNC(=O)CCCCCCCCCCCCCCCCCCC(=O)O)NC(=O)[C@H](CCCCN)NC(=O)[C@H](CC(=O)O)NC(=O)[C@H](CC(C)C)NC(=O)[C@H](CC(C)C)NC(=O)[C@@H](NC(=O)[C@H](CO)NC(=O)[C@H](Cc1ccc(O)cc1)NC(=O)[C@H](CC(=O)O)NC(=O)[C@H](CO)NC(=O)[C@@H](NC(=O)[C@H](Cc1ccccc1)NC(=O)[C@@H](NC(=O)CNC(=O)[C@H](CCC(=O)O)NC(=O)C(C)(C)NC(=O)[C@@H](N)Cc1ccc(O)cc1)[C@@H](C)O)[C@@H](C)O)[C@@H](C)CC)[C@@H](C)CC)C(=O)N[C@@H](CCC(=O)O)C(=O)NCC(=O)NCC(=O)N1CCC[C@H]1C(=O)N[C@@H](CO)C(=O)N[C@@H](CO)C(=O)NCC(=O)N[C@@H](C)C(=O)N1CCC[C@H]1C(=O)N1CCC[C@H]1C(=O)N1CCC[C@H]1C(=O)N[C@@H](CO)C(N)=O [Example 113] | 0.233 | 0.166
5 | CC[C@H](C)[C@H](NC(=O)[C@H](CC(C)C)NC(=O)[C@H](Cc1ccc(O)cc1)NC(=O)[C@H](CCC(=O)O)NC(=O)[C@@H](NC(=O)[C@H](Cc1ccccc1)NC(=O)[C@H](C)NC(=O)C(C)(C)NC(=O)[C@H](CCC(N)=O)NC(=O)[C@H](C)NC(=O)[C@H](CCCCNC(=O)COCCOCCNC(=O)[C@@H](N)CCCCNC(=O)[C@@H](N)CCCCNC(=O)CCCCCCCCCCCCCCCCCCC(=O)O)NC(=O)[C@H](CCCCN)NC(=O)[C@H](CC(=O)O)NC(=O)[C@H](CC(C)C)NC(=O)[C@H](CC(C)C)NC(=O)[C@@H](NC(=O)[C@H](CO)NC(=O)[C@H](Cc1ccc(O)cc1)NC(=O)[C@H](CC(=O)O)NC(=O)[C@H](CO)NC(=O)[C@@H](NC(=O)[C@H](Cc1ccccc1)NC(=O)[C@@H](NC(=O)CNC(=O)[C@H](CCC(=O)O)NC(=O)C(C)(C)NC(=O)[C@@H](N)Cc1ccc(O)cc1)[C@@H](C)O)[C@@H](C)O)[C@@H](C)CC)[C@@H](C)CC)C(=O)N[C@@H](CCC(=O)O)C(=O)NCC(=O)NCC(=O)N1CCC[C@H]1C(=O)N[C@@H](CO)C(=O)N[C@@H](CO)C(=O)NCC(=O)N[C@@H](C)C(=O)N1CCC[C@H]1C(=O)N1CCC[C@H]1C(=O)N1CCC[C@H]1C(=O)N[C@@H](CO)C(N)=O [Example 114] | 0.267 | 0.133
6 | CC[C@H](C)[C@H](NC(=O)[C@H](CC(C)C)NC(=O)[C@H](Cc1ccc(O)cc1)NC(=O)[C@H](CCC(=O)O)NC(=O)[C@@H](NC(=O)[C@H](Cc1ccccc1)NC(=O)[C@H](C)NC(=O)C(C)(C)NC(=O)[C@H](CCC(N)=O)NC(=O)[C@H](C)NC(=O)[C@H](CCCCNC(=O)COCCOCCNC(=O)COCCOCCNC(=O)CC[C@H](NC(=O)CCCCCCCCCCCCCCCCCCC(=O)O)C(=O)O)NC(=O)[C@H](CCCCN)NC(=O)[C@H](CC(=O)O)NC(=O)[C@H](CC(C)C)NC(=O)[C@H](CC(C)C)NC(=O)[C@@H](NC(=O)[C@H](CO)NC(=O)[C@](C)(Cc1ccccc1)NC(=O)[C@H](CC(=O)O)NC(=O)[C@H](CO)NC(=O)[C@@H](NC(=O)[C@](C)(Cc1ccccc1)NC(=O)[C@@H](NC(=O)CNC(=O)[C@H](CCC(=O)O)NC(=O)C(C)(C)NC(=O)[C@@H](N)Cc1ccc(O)cc1)[C@@H](C)O)[C@@H](C)O)[C@@H](C)CC)[C@@H](C)CC)C(=O)N[C@@H](CCC(=O)O)C(=O)NCC(=O)NCC(=O)N1CCC[C@H]1C(=O)N[C@@H](CO)C(=O)N[C@@H](CO)C(=O)NCC(=O)N[C@@H](C)C(=O)N1CCC[C@H]1C(=O)N1CCC[C@H]1C(=O)N1CCC[C@H]1C(=O)N[C@@H](CO)C(N)=O [Example 131] (H-Y[Aib]EGT[αMeF]TSD[αMeF]SILLDKK([AEEA-AEEA-γGlu-C20 diacid])AQ[Aib]AFIEYLIEGGPSSGAPPPS-NH2) | 0.156 | 0.183
